Tested on: MV-4-11 cells
Assay: Gene expression microarray analysis (Affymetrix PrimeView) and GSEA
Assay type: cell-based, human
Set-up: RFU PODN (11730768_x_at) / Fold change /veh PODN (11730768_x_at) / RFU LINC00158 (11744669_a_at) / Fold change /veh LINC00158 (11744669_a_at) / RFU DUSP10 (11751237_a_at) / Fold change /veh DUSP10 (11751237_a_at) / RFU ID3 (11757404_x_at) / Fold change /veh ID3 (11757404_x_at) / RFU PLEKHG5 (11737974_s_at) / Fold change /veh PLEKHG5 (11737974_s_at) / RFU LRRC4B (11730491_at) / Fold change /veh LRRC4B (11730491_at) / RFU GIMAP4 (11747438_a_at) / Fold change /veh GIMAP4 (11747438_a_at) / RFU KRT8 (11758183_x_at) / Fold change /veh KRT8 (11758183_x_at) / RFU CNN1 (11734310_a_at) / Fold change /veh CNN1 (11734310_a_at) / RFU VPS37D (11726825_at) / Fold change /veh VPS37D (11726825_at) / RFU C10orf10 (11716522_x_at) / Fold change /veh C10orf10 (11716522_x_at) / RFU KIR2DL2 /// KIR2DL4 /// KIR2DL5A /// KIR2DL5B /// KIR2DS1 /// KIR2DS2 /// KIR2DS3 /// KIR2DS4 /// KIR3DL3 /// KIR3DL3 /// KIR3DS1 (11738374_at) / Fold change /veh KIR2DL2 /// KIR2DL4 /// KIR2DL5A /// KIR2DL5B /// KIR2DS1 /// KIR2DS2 /// KIR2DS3 /// KIR2DS4 /// KIR3DL3 /// KIR3DL3 /// KIR3DS1 (11738374_at) / RFU C1QL1 (11718748_at) / Fold change /veh C1QL1 (11718748_at) / RFU TMPRSS4 (11747572_a_at) / Fold change /veh TMPRSS4 (11747572_a_at) / RFU HAMP (11756126_x_at) / Fold change /veh HAMP (11756126_x_at) / RFU RNFT2 (11725882_a_at) / Fold change /veh RNFT2 (11725882_a_at) / RFU NR4A2 (11747474_a_at) / Fold change /veh NR4A2 (11747474_a_at) / RFU ABCC12 (11746883_a_at) / Fold change /veh ABCC12 (11746883_a_at) / RFU TMEM136 (11760407_x_at) / Fold change /veh TMEM136 (11760407_x_at) / RFU CLDN22 /// WWC2 (11732394_at) / Fold change /veh CLDN22 /// WWC2 (11732394_at) / RFU HLA-DPB1 (11760878_x_at) / Fold change /veh HLA-DPB1 (11760878_x_at) / RFU SPINT1 (11716480_a_at) / Fold change /veh SPINT1 (11716480_a_at) / RFU GAP43 (11754022_s_at) / Fold change /veh GAP43 (11754022_s_at) / RFU A4GNT (11735810_at) / Fold change /veh A4GNT (11735810_at) / RFU PRB3 (11715151_x_at) / Fold change /veh PRB3 (11715151_x_at) / RFU TUBB4B (11761932_at) / Fold change /veh TUBB4B (11761932_at) / RFU CAPN14 (11732068_a_at) / Fold change /veh CAPN14 (11732068_a_at) / RFU TMCC2 (11721928_a_at) / Fold change /veh TMCC2 (11721928_a_at) / RFU IRGQ (11745062_a_at) / Fold change /veh IRGQ (11745062_a_at) / RFU FAM174B (11720279_a_at) / Fold change /veh FAM174B (11720279_a_at) / RFU TMPRSS4 (11748680_a_at) / Fold change /veh TMPRSS4 (11748680_a_at) / RFU FAM212B (11763350_a_at) / Fold change /veh FAM212B (11763350_a_at) / RFU PLEKHG5 (11743358_a_at) / Fold change /veh PLEKHG5 (11743358_a_at) / RFU ZSCAN30 (11745921_a_at) / Fold change /veh ZSCAN30 (11745921_a_at) / RFU CMKLR1 (11741424_a_at) / Fold change /veh CMKLR1 (11741424_a_at) / RFU LOC101060620 /// MAPK8IP1 (11723275_at) / Fold change /veh LOC101060620 /// MAPK8IP1 (11723275_at) / RFU SPTSSB (11747773_x_at) / Fold change /veh SPTSSB (11747773_x_at) / RFU PRSS12 (11739890_at) / Fold change /veh PRSS12 (11739890_at) / RFU BIN1 (11741810_x_at) / Fold change /veh BIN1 (11741810_x_at) / RFU WNT11 (11732464_a_at) / Fold change /veh WNT11 (11732464_a_at) / RFU C10orf10 (11716521_a_at) / Fold change /veh C10orf10 (11716521_a_at) / RFU C5orf56 (11738089_at) / Fold change /veh C5orf56 (11738089_at) / RFU CYB561 (11721691_x_at) / Fold change /veh CYB561 (11721691_x_at) / RFU ANKRD19P (11752326_a_at) / Fold change /veh ANKRD19P (11752326_a_at) / RFU OR2T12 /// OR2T33 /// OR2T8 (11738714_s_at) / Fold change /veh OR2T12 /// OR2T33 /// OR2T8 (11738714_s_at) / RFU VCAN (11748164_a_at) / Fold change /veh VCAN (11748164_a_at) / RFU JSRP1 (11732532_at) / Fold change /veh JSRP1 (11732532_at) / RFU KRTAP10-11 (11738290_x_at) / Fold change /veh KRTAP10-11 (11738290_x_at) / RFU MYO3A (11730013_a_at) / Fold change /veh MYO3A (11730013_a_at) / RFU EBF3 (11725865_a_at) / Fold change /veh EBF3 (11725865_a_at) / RFU CAMK2N1 (11719241_x_at) / Fold change /veh CAMK2N1 (11719241_x_at) / RFU C5orf56 (11738088_a_at) / Fold change /veh C5orf56 (11738088_a_at) / RFU OLFML3 (11715873_a_at) / Fold change /veh OLFML3 (11715873_a_at) / RFU LOC100653217 /// NTM (11731650_a_at) / Fold change /veh LOC100653217 /// NTM (11731650_a_at) / RFU MAPK11 (11762145_a_at) / Fold change /veh MAPK11 (11762145_a_at) / RFU FIZ1 (11724087_x_at) / Fold change /veh FIZ1 (11724087_x_at) / RFU OASL (11726364_x_at) / Fold change /veh OASL (11726364_x_at) / RFU SOX15 (11748057_x_at) / Fold change /veh SOX15 (11748057_x_at) / RFU CD79A (11719716_a_at) / Fold change /veh CD79A (11719716_a_at) / RFU HIST1H1D (11736915_at) / Fold change /veh HIST1H1D (11736915_at) / RFU CASKIN2 (11723855_a_at) / Fold change /veh CASKIN2 (11723855_a_at) / RFU LOC730098 (11760151_x_at) / Fold change /veh LOC730098 (11760151_x_at) / RFU OR4N2 (11742367_at) / Fold change /veh OR4N2 (11742367_at) / RFU PRRT2 (11749266_a_at) / Fold change /veh PRRT2 (11749266_a_at) / RFU SNX32 (11753110_a_at) / Fold change /veh SNX32 (11753110_a_at) / RFU CDHR5 (11726645_a_at) / Fold change /veh CDHR5 (11726645_a_at) / RFU RCAN1 (11760418_a_at) / Fold change /veh RCAN1 (11760418_a_at) / RFU FAM167A (11723789_a_at) / Fold change /veh FAM167A (11723789_a_at) / RFU FAM26E (11764081_at) / Fold change /veh FAM26E (11764081_at) / RFU ISYNA1 (11749810_s_at) / Fold change /veh ISYNA1 (11749810_s_at) / RFU ACY1 (11761880_at) / Fold change /veh ACY1 (11761880_at) / RFU 11764098_at / Fold change /veh 11764098_at / RFU SAMD14 (11745864_x_at) / Fold change /veh SAMD14 (11745864_x_at) / RFU NPB (11741838_a_at) / Fold change /veh NPB (11741838_a_at) / RFU TMPRSS6 (11731388_a_at) / Fold change /veh TMPRSS6 (11731388_a_at) / RFU KRTAP10-2 (11738614_at) / Fold change /veh KRTAP10-2 (11738614_at) / RFU ARHGAP8 /// PRR5-ARHGAP8 (11727945_x_at) / Fold change /veh ARHGAP8 /// PRR5-ARHGAP8 (11727945_x_at) / RFU KRTAP5-7 /// NADSYN1 (11734609_at) / Fold change /veh KRTAP5-7 /// NADSYN1 (11734609_at) / RFU RASL12 (11751679_a_at) / Fold change /veh RASL12 (11751679_a_at) / RFU CDKN2B (11736163_a_at) / Fold change /veh CDKN2B (11736163_a_at) / RFU PRF1 (11729649_at) / Fold change /veh PRF1 (11729649_at) / RFU, ZNF638 /// ZNF638-IT1 / Fold change vs veh, ZNF638 /// ZNF638-IT1 / RFU, PANK3 / Fold change vs veh, PANK3 / RFU, SH3YL1 / Fold change vs veh, SH3YL1 / RFU, ZEB2 / Fold change vs veh, ZEB2 / RFU, NRIP1 / Fold change vs veh, NRIP1 / RFU, PTTG1IP / Fold change vs veh, PTTG1IP / RFU, CAPN2 / Fold change vs veh, CAPN2 / RFU, MED14 / Fold change vs veh, MED14 / RFU, SNORA58 / Fold change vs veh, SNORA58 / RFU, C1orf63 / Fold change vs veh, C1orf63 / RFU, LRRFIP1 / Fold change vs veh, LRRFIP1 / RFU, NDUFAF7 / Fold change vs veh, NDUFAF7 / RFU, SLC12A2 / Fold change vs veh, SLC12A2 / RFU, IBTK / Fold change vs veh, IBTK / RFU, ESF1 / Fold change vs veh, ESF1 / Fold change vs veh, TMEM50B / RFU, TAOK1 / Fold change vs veh, TAOK1 / RFU, ACBD3 / Fold change vs veh, ACBD3 / RFU, TMA16 / Fold change vs veh, TMA16 / RFU, RWDD3 / Fold change vs veh, RWDD3 / RFU, BCAT1 / Fold change vs veh, BCAT1 / RFU, EDEM3 / Fold change vs veh, EDEM3 / RFU, TMEM33 / Fold change vs veh, TMEM33 / RFU, WDR75 / Fold change vs veh, WDR75 / RFU, AHCTF1 / Fold change vs veh, AHCTF1 / RFU, TFRC / Fold change vs veh, TFRC / RFU, ZDHHC17 / Fold change vs veh, ZDHHC17 / RFU, NOM1 / Fold change vs veh, NOM1 / RFU, ARL8B / Fold change vs veh, ARL8B / RFU, ZBTB11 / Fold change vs veh, ZBTB11 / RFU, TAMM41 / Fold change vs veh, TAMM41 / RFU, KIAA1704 /// LOC100996395 / Fold change vs veh, KIAA1704 /// LOC100996395 / RFU, ING1 / Fold change vs veh, ING1 / RFU, TRMT61B / Fold change vs veh, TRMT61B / RFU, FUBP3 / Fold change vs veh, FUBP3 / RFU, TP53 / Fold change vs veh, TP53 / RFU, TNKS2 / Fold change vs veh, TNKS2 / RFU, ZFP14 / Fold change vs veh, ZFP14 / RFU, ACTR2 / Fold change vs veh, ACTR2 / RFU, PPP3R1 / Fold change vs veh, PPP3R1 / RFU, PIK3R1 / Fold change vs veh, PIK3R1 / RFU, HNRNPA1 / Fold change vs veh, HNRNPA1 / RFU, RNF170 / Fold change vs veh, RNF170 / RFU, ZNF28 / Fold change vs veh, ZNF28 / RFU, RNGTT / Fold change vs veh, RNGTT / RFU, OGT / Fold change vs veh, OGT / RFU, BRD1 / Fold change vs veh, BRD1 / RFU, MARS / Fold change vs veh, MARS / RFU, ZNF655 / Fold change vs veh, ZNF655 / RFU, FAHD1 / Fold change vs veh, FAHD1 / RFU, BDP1 / Fold change vs veh, BDP1 / RFU, LRRCC1 / Fold change vs veh, LRRCC1 / RFU, ARID1A / Fold change vs veh, ARID1A / RFU, ZNF146 / Fold change vs veh, ZNF146 / RFU, ZNF330 / Fold change vs veh, ZNF330 / RFU, GPN3 / Fold change vs veh, GPN3 / RFU, C9orf123 / Fold change vs veh, C9orf123 / RFU, N4BP2L2 / Fold change vs veh, N4BP2L2 / RFU, ARFIP1 / Fold change vs veh, ARFIP1 / RFU, FAM179B / Fold change vs veh, FAM179B / RFU, BCL10 / Fold change vs veh, BCL10 / RFU, UHRF1BP1L / Fold change vs veh, UHRF1BP1L / RFU, BET1 / Fold change vs veh, BET1 / RFU, CNOT2 / Fold change vs veh, CNOT2 / RFU, ZNF268 / Fold change vs veh, ZNF268 / Fold change vs veh, ZNF507 / RFU, DGCR2 / Fold change vs veh, DGCR2 / RFU, WDSUB1 / Fold change vs veh, WDSUB1 / Fold change vs veh, HSP90B1 /// MIR3652 / RFU, ADSS / Fold change vs veh, ADSS / RFU, GK / Fold change vs veh, GK / RFU, ZNF148 / Fold change vs veh, ZNF148 / RFU, TAF9 / Fold change vs veh, TAF9 / RFU, SLC1A5 / Fold change vs veh, SLC1A5 / RFU, SLMO2 / Fold change vs veh, SLMO2 / RFU, ABCC4 / Fold change vs veh, ABCC4 / RFU, LOC101060439 /// RAP1B / Fold change vs veh, LOC101060439 /// RAP1B / RFU, RFX7 / Fold change vs veh, RFX7 / RFU, GTPBP10 / Fold change vs veh, GTPBP10 / RFU, CNEP1R1 / Fold change vs veh, CNEP1R1 / RFU, BIVM-ERCC5 /// ERCC5 / Fold change vs veh, BIVM-ERCC5 /// ERCC5 / RFU, ILF3 / Fold change vs veh, ILF3 / RFU 11762660_at / Fold change /veh 11762660_at / RFU VCAN (11757783_s_at) / Fold change /veh VCAN (11757783_s_at) / RFU DDX43 (11728927_at) / Fold change /veh DDX43 (11728927_at) / RFU KRT8 (11758188_x_at) / Fold change /veh KRT8 (11758188_x_at) / RFU NKD1 (11759106_at) / Fold change /veh NKD1 (11759106_at) / RFU SRD5A1 (11742802_a_at) / Fold change /veh SRD5A1 (11742802_a_at) / RFU TPSAB1 /// TPSB2 (11721975_s_at) / Fold change /veh TPSAB1 /// TPSB2 (11721975_s_at) / RFU GSTM3 (11746129_a_at) / Fold change /veh GSTM3 (11746129_a_at) / RFU IL23R (11737362_x_at) / Fold change /veh IL23R (11737362_x_at) / RFU TMEM51 (11727254_a_at) / Fold change /veh TMEM51 (11727254_a_at) / RFU PIWIL2 (11732686_x_at) / Fold change /veh PIWIL2 (11732686_x_at) / RFU ORM1 (11744905_x_at) / Fold change /veh ORM1 (11744905_x_at) / RFU CCDC152 (11743942_at) / Fold change /veh CCDC152 (11743942_at) / RFU ECM1 (11717891_a_at) / Fold change /veh ECM1 (11717891_a_at) / RFU IL23R (11748794_a_at) / Fold change /veh IL23R (11748794_a_at) / RFU TNFAIP8L3 (11732012_x_at) / Fold change /veh TNFAIP8L3 (11732012_x_at) / RFU MBOAT4 (11741988_at) / Fold change /veh MBOAT4 (11741988_at) / RFU 11764193_at / Fold change /veh 11764193_at / RFU TMEM53 (11763286_at) / Fold change /veh TMEM53 (11763286_at) / RFU MAGEB2 (11727129_at) / Fold change /veh MAGEB2 (11727129_at) / RFU TMEM200A (11744735_a_at) / Fold change /veh TMEM200A (11744735_a_at) / RFU CCDC152 (11751479_a_at) / Fold change /veh CCDC152 (11751479_a_at) / RFU FAM211A (11726209_a_at) / Fold change /veh FAM211A (11726209_a_at) / RFU RGS16 (11746705_a_at) / Fold change /veh RGS16 (11746705_a_at) / RFU VCAN (11755009_s_at) / Fold change /veh VCAN (11755009_s_at) / RFU RHOB (11743442_s_at) / Fold change /veh RHOB (11743442_s_at) / RFU RGS16 (11720943_a_at) / Fold change /veh RGS16 (11720943_a_at) / RFU RGS16 (11720944_at) / Fold change /veh RGS16 (11720944_at) / RFU, VPS4B / Fold change vs veh, VPS4B / RFU, CREB1 / Fold change vs veh, CREB1 / RFU, DNAJC13 / Fold change vs veh, DNAJC13 / RFU, GNAQ / Fold change vs veh, GNAQ / RFU, CDK5R1 / Fold change vs veh, CDK5R1 / RFU, ZRANB3 / Fold change vs veh, ZRANB3 / RFU, CUL4A / Fold change vs veh, CUL4A / RFU, CCNY / Fold change vs veh, CCNY / RFU, UFL1 / Fold change vs veh, UFL1 / RFU, COG3 / Fold change vs veh, COG3 / RFU, DIAPH2 / Fold change vs veh, DIAPH2 / RFU, SKA2 / Fold change vs veh, SKA2 / RFU, AFF3 / Fold change vs veh, AFF3 / RFU, LMF1 / Fold change vs veh, LMF1 / RFU, IPO11 / Fold change vs veh, IPO11 / RFU, DFFB / Fold change vs veh, DFFB / RFU, FOXP1 / Fold change vs veh, FOXP1 / RFU, CARD8 / Fold change vs veh, CARD8 / RFU, STRN3 / Fold change vs veh, STRN3 / RFU, ADK / Fold change vs veh, ADK / RFU, RASSF2 / Fold change vs veh, RASSF2 / RFU, WIPF1 / Fold change vs veh, WIPF1 / RFU, LARP1B / Fold change vs veh, LARP1B / RFU, RASA1 / Fold change vs veh, RASA1 / RFU, RB1 / Fold change vs veh, RB1 / RFU, PPFIA1 / Fold change vs veh, PPFIA1 / RFU, MAT2A / Fold change vs veh, MAT2A / RFU, CCT5 / Fold change vs veh, CCT5 / RFU, WDR92 / Fold change vs veh, WDR92 / RFU, CUX1 / Fold change vs veh, CUX1 / RFU, TTC7A / Fold change vs veh, TTC7A / RFU, TMEM135 / Fold change vs veh, TMEM135 / RFU, DEPTOR / Fold change vs veh, DEPTOR / RFU, CPM / Fold change vs veh, CPM / RFU, DNAJB6 / Fold change vs veh, DNAJB6 / RFU, CACNA2D3 / Fold change vs veh, CACNA2D3 / RFU, DTX4 / Fold change vs veh, DTX4 / RFU, TFCP2 / Fold change vs veh, TFCP2 / RFU, GMCL1 /// GMCL1P1 / Fold change vs veh, GMCL1 /// GMCL1P1 / RFU, AEBP2 / Fold change vs veh, AEBP2 / RFU, SNHG1 /// SNORD22 /// SNORD25 /// SNORD26 /// SNORD27 /// SNORD28 /// SNORD29 /// SNORD31 / Fold change vs veh, SNHG1 /// SNORD22 /// SNORD25 /// SNORD26 /// SNORD27 /// SNORD28 /// SNORD29 /// SNORD31 / Fold change (Aza/veh), C12orf56 (ProbeSet 11735607_a_at) / Fold change (ACY-1035/veh), C12orf56 (ProbeSet 11735607_a_at) / Fold change (Aza/veh), FGFR1OP (ProbeSet 11751329_s_at) / Fold change (ACY-1035/veh), FGFR1OP (ProbeSet 11751329_s_at) / Fold change (Aza/veh), VPS36 (ProbeSet 11739960_a_at) / Fold change (ACY-1035/veh), VPS36 (ProbeSet 11739960_a_at) / RFU SYPL1 (11715823_x_at) / Fold change /veh SYPL1 (11715823_x_at) / RFU IGFBP7 (11715501_s_at) / Fold change /veh IGFBP7 (11715501_s_at) / RFU REEP3 (11722064_at) / Fold change /veh REEP3 (11722064_at) / RFU IGLL1 (11728026_x_at) / Fold change /veh IGLL1 (11728026_x_at): dose or concentration left out as unconfirmed
Conditions: MV-4-11 cells, 48 hours

## Nc1ncn([C@@H]2O[C@H](CO)[C@@H](O)[C@H]2O)c(=O)n1 [azacitidine]
  RFU CAPN14 (11732068_a_at): 10.94 RFU
